pKi: −log10 of the molar value.
Experiments:
[1] = target: T1, 5-hydroxytryptamine receptor 1A (Rattus norvegicus, UniProt P19327)
T1 sequence (P19327 whole entry): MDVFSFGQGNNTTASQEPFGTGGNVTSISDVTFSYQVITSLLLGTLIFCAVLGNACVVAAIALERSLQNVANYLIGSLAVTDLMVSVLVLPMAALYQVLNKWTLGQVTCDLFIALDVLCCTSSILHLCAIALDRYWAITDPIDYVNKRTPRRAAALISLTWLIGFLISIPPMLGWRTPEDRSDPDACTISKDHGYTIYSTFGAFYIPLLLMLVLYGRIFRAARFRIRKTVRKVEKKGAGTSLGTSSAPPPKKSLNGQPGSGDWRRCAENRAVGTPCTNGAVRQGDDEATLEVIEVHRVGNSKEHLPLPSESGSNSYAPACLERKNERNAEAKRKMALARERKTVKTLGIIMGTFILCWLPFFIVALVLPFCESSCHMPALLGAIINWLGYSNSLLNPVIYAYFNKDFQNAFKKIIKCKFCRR

[2] = target: T2, Alpha-1A adrenergic receptor (Homo sapiens, UniProt P35348)
T2 sequence (P35348 whole entry): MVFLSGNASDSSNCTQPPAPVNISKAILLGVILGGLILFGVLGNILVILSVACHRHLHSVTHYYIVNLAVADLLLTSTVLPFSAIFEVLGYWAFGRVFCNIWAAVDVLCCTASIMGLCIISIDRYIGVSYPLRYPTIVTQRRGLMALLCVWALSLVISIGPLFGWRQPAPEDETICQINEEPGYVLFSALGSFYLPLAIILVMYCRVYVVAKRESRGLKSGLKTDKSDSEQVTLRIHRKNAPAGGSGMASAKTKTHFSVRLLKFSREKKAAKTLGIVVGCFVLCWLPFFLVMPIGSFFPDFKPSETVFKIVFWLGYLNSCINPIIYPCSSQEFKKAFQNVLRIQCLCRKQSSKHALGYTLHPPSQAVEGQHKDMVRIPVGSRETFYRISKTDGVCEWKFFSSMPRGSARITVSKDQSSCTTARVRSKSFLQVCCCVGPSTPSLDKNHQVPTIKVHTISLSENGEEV

[3] = target: T3, Alpha-1B adrenergic receptor (Homo sapiens, UniProt P35368)
T3 sequence (P35368 whole entry): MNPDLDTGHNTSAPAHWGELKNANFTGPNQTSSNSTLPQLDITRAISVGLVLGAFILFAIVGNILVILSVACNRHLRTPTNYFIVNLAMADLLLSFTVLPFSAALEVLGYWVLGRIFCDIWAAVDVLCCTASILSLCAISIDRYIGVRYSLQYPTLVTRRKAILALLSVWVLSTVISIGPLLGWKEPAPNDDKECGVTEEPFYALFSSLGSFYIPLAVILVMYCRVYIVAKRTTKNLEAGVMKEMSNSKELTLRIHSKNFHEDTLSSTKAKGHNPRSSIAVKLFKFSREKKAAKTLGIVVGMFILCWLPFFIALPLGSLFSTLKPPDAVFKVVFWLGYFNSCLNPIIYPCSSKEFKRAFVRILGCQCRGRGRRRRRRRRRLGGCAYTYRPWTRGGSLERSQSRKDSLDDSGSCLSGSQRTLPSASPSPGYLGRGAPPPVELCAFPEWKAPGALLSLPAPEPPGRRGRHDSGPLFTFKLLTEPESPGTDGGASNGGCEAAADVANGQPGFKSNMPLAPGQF

[4] = target: T4, Alpha-1D adrenergic receptor (Homo sapiens, UniProt P25100)
T4 sequence (P25100 whole entry): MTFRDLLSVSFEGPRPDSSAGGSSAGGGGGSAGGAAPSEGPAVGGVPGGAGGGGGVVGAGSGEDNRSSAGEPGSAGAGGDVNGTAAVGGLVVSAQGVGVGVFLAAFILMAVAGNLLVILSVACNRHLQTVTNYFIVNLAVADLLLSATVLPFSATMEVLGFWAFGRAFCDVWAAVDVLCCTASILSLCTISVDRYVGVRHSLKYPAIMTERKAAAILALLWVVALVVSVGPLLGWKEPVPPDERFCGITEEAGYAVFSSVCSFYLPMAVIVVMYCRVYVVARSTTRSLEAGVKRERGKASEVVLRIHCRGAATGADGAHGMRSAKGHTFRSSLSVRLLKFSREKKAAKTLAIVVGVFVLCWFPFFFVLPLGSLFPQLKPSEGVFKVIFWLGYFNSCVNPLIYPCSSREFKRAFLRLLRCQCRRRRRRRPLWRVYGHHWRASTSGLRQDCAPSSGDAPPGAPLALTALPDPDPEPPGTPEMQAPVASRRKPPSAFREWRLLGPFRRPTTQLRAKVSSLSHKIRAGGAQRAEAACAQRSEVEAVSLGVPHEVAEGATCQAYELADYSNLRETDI

pKi [1]: 9.15
pKi [2]: 7.09
pKi [3]: 6.98
pKi [4]: 8.24
Compound: COc1ccccc1N1CCN(CCN(C(=O)C2CCCCC2)c2ccccc2[N+](=O)[O-])CC1 [N-[2-[4-(2-methoxyphenyl)-1-piperazinyl]-ethyl]-N-(2-nitrophenyl)cyclohexanecarboxamide]
